Test results reported in ChEMBL document CHEMBL2375222, “Synthesis of 1H-1,2,3-triazole linked β-lactam-isatin bi-functional hybrids and preliminary analysis of in vitro activity against the protozoal parasite Trichomonas vaginalis” (Eur J Med Chem, 2013).
Values belong to the compound of their own block, whether it stands above or below them.

How the values were obtained:
[1] = tested on: Trichomonas vaginalis; test: […] activity against Trichomonas vaginalis G3 at 10 uM after 24 hrs by hemocytometry; format: functional; conditions: G3, 24 h
[2] = tested on: CHO-K1; test: Cytotoxicity against CHOK1 cells assessed as change in cell morphology at 100 uM by light microscopy; format: cell-based, Cricetulus griseus; conditions: chinese hamster, cho-k1, 100 µM
[3] = tested on: Trichomonas vaginalis; test: […] activity against Trichomonas vaginalis G3 after 24 hrs by hemocytometry; format: functional; conditions: G3, 24 h
[4] = tested on: Trichomonas vaginalis; test: […] activity against Trichomonas vaginalis G3 at 100 uM after 24 hrs by hemocytometry; format: functional; conditions: G3, 24 h
[5] = tested on: CHO-K1; test: Cytotoxicity against CHOK1 cells assessed as change in cell morphology by light microscopy; format: cell-based; conditions: Cricetulus griseus

IC50 [3]: 9.94 µM
SMILES: O=C1C(=O)N(Cc2cn([C@@H]3C(=O)N(c4ccc(Cl)cc4)[C@@H]3/C=C/c3ccccc3)nn2)c2ccc(Cl)cc21 (relative stereo)
inhibition at 10 µM [1]: 53.7%
Activity [2]: Toxic
inhibition at 100 µM [4]: 100%

IC50 [3]: 22.1 µM
SMILES: Cc1ccc(N2C(=O)[C@@H](n3cc(CN4C(=O)C(=O)c5cc(F)ccc54)nn3)[C@H]2/C=C/c2ccccc2)cc1 (relative stereo)
inhibition at 10 µM [1]: 58.5%
Activity [2]: Toxic
inhibition at 100 µM [4]: 100%

IC50 [3]: 9.34 µM
SMILES: O=C1C(=O)N(Cc2cn([C@@H]3C(=O)N(c4ccccc4)[C@@H]3/C=C/c3ccccc3)nn2)c2ccc(Br)cc21 (relative stereo)
inhibition at 10 µM [1]: 83%
Activity [2]: Toxic
inhibition at 100 µM [4]: 100%

SMILES: O=C1C(=O)N(Cc2cn([C@@H]3C(=O)N(c4ccccc4)[C@@H]3/C=C/c3ccccc3)nn2)c2ccccc21 (relative stereo)
inhibition at 10 µM [1]: 100%
Activity [2]: Toxic
inhibition at 100 µM [4]: 100%

SMILES: O=C1C(=O)N(Cc2cn([C@@H]3C(=O)N(c4ccc(F)cc4)[C@@H]3/C=C/c3ccccc3)nn2)c2ccc(F)cc21 (relative stereo)
inhibition at 10 µM [1]: 19.5%
Activity [2]: Toxic
inhibition at 100 µM [4]: 100%

SMILES: O=C1C(=O)N(Cc2cn([C@@H]3C(=O)N(c4ccc(F)cc4)[C@@H]3/C=C/c3ccccc3)nn2)c2ccc(Cl)cc21 (relative stereo)
inhibition at 10 µM [1]: 14.6%
Activity [2]: Toxic
inhibition at 100 µM [4]: 100%

SMILES: O=C1C(=O)N(Cc2cn([C@@H]3C(=O)N(C4CCCCC4)[C@@H]3/C=C/c3ccccc3)nn2)c2ccccc21
inhibition at 10 µM [1]: 26.8%
Activity [2]: Toxic
inhibition at 100 µM [4]: 100%

SMILES: O=C1C(=O)N(Cc2cn([C@@H]3C(=O)N(c4ccc(F)cc4)[C@@H]3/C=C/c3ccccc3)nn2)c2ccc(Br)cc21 (relative stereo)
inhibition at 10 µM [1]: 0%
Activity [2]: Toxic
inhibition at 100 µM [4]: 100%

IC50 [3]: 7.69 µM
SMILES: O=C1C(=O)N(Cc2cn([C@@H]3C(=O)N(c4ccc(F)cc4)[C@@H]3/C=C/c3ccccc3)nn2)c2ccccc21 (relative stereo)
inhibition at 10 µM [1]: 38.5%
IC50 [5]: 7.69 µM
inhibition at 100 µM [4]: 100%

IC50 [3]: 8.27 µM
SMILES: O=C1C(=O)N(Cc2cn([C@@H]3C(=O)N(c4ccc(Cl)cc4)[C@@H]3/C=C/c3ccccc3)nn2)c2ccccc21 (relative stereo)
inhibition at 10 µM [1]: 80.5%
Activity [2]: Toxic
inhibition at 100 µM [4]: 100%

IC50 [3]: 7.06 µM
SMILES: O=C1C(=O)N(Cc2cn([C@@H]3C(=O)N(c4ccccc4)[C@@H]3/C=C/c3ccccc3)nn2)c2ccc(F)cc21 (relative stereo)
inhibition at 10 µM [1]: 58.5%
Activity [2]: Toxic
inhibition at 100 µM [4]: 100%

SMILES: O=C1C(=O)N(Cc2cn([C@@H]3C(=O)N(Cc4ccccc4)[C@@H]3/C=C/c3ccccc3)nn2)c2ccc(F)cc21 (relative stereo)
inhibition at 10 µM [1]: 0%
Activity [2]: Toxic
inhibition at 100 µM [4]: 19.6%

IC50 [3]: 9.82 µM
SMILES: O=C1C(=O)N(Cc2cn([C@@H]3C(=O)N(c4ccccc4)[C@@H]3/C=C/c3ccccc3)nn2)c2ccc(Cl)cc21 (relative stereo)
inhibition at 10 µM [1]: 61%
Activity [2]: Toxic
inhibition at 100 µM [4]: 100%

SMILES: O=C1C(=O)N(Cc2cn([C@@H]3C(=O)N(C4CCCCC4)[C@@H]3/C=C/c3ccccc3)nn2)c2ccc(F)cc21 (relative stereo)
inhibition at 10 µM [1]: 0%
Activity [2]: Toxic
inhibition at 100 µM [4]: 100%

IC50 [3]: 44.5 µM
SMILES: Cc1ccc2c(c1)C(=O)C(=O)N2Cc1cn([C@@H]2C(=O)N(C3CCCCC3)[C@@H]2/C=C/c2ccccc2)nn1 (relative stereo)
inhibition at 10 µM [1]: 9.8%
Activity [2]: Toxic
inhibition at 100 µM [4]: 95.7%

IC50 [3]: 27.5 µM
SMILES: Cc1ccc(N2C(=O)[C@@H](n3cc(CN4C(=O)C(=O)c5ccccc54)nn3)[C@H]2/C=C/c2ccccc2)cc1
inhibition at 10 µM [1]: 4.9%
Activity [2]: Toxic
inhibition at 100 µM [4]: 100%

IC50 [3]: 10.1 µM
SMILES: Cc1ccc(N2C(=O)[C@@H](n3cc(CN4C(=O)C(=O)c5cc(Cl)ccc54)nn3)[C@H]2/C=C/c2ccccc2)cc1 (relative stereo)
inhibition at 10 µM [1]: 48.8%
Activity [2]: Toxic
inhibition at 100 µM [4]: 100%

SMILES: O=C1C(=O)N(Cc2cn([C@@H]3C(=O)N(Cc4ccccc4)[C@@H]3/C=C/c3ccccc3)nn2)c2ccc(Cl)cc21 (relative stereo)
inhibition at 10 µM [1]: 7.3%
Activity [2]: Toxic
inhibition at 100 µM [4]: 67.4%

IC50 [3]: 8.68 µM
SMILES: O=C1C(=O)N(Cc2cn([C@@H]3C(=O)N(Cc4ccccc4)[C@@H]3/C=C/c3ccccc3)nn2)c2ccccc21 (relative stereo)
inhibition at 10 µM [1]: 7.8%
Activity [2]: Toxic
inhibition at 100 µM [4]: 100%

SMILES: Cc1ccc2c(c1)C(=O)C(=O)N2Cc1cn([C@@H]2C(=O)N(c3ccccc3)[C@@H]2/C=C/c2ccccc2)nn1
inhibition at 10 µM [1]: 0%
Activity [2]: Toxic
inhibition at 100 µM [4]: 82.6%

SMILES: O=C1C(=O)N(Cc2cn([C@@H]3C(=O)N(C4CCCCC4)[C@@H]3/C=C/c3ccccc3)nn2)c2ccc(Cl)cc21 (relative stereo)
inhibition at 10 µM [1]: 7.3%
Activity [2]: Toxic
inhibition at 100 µM [4]: 100%

SMILES: O=C1C(=O)N(Cc2cn([C@@H]3C(=O)N(C4CCCCC4)[C@@H]3/C=C/c3ccccc3)nn2)c2ccc(Br)cc21 (relative stereo)
inhibition at 10 µM [1]: 4.9%
Activity [2]: Toxic
inhibition at 100 µM [4]: 100%
